Literature values as cited in US20180100201A1, “TUMOR AND MICROENVIRONMENT GENE EXPRESSION, COMPOSITIONS OF MATTER AND METHODS OF USE THEREOF” (The Broad Institute Inc., priority 2015, published 2018).

System: Factor VII
Conditions: LNP siRNA systems containing these lipids

Compound: CCCCC/C=C\C/C=C\CCCCCCCCOCC(CN(C)C)OCCCCCCCC/C=C\C/C=C\CCCCC (stereo not shown) [DLinDMA, 1,2-dilinoleyloxy-3-N,N-dimethylaminopropane]
- gene silencing potency in hepatocytes in vivo, series: DLinKC2-DMA>DLinKDMA>DLinDMA>>DLinDAP

Compound: 1,2-dilinoleyloxy-keto-N,N-dimethyl-3-aminopropane [DLinKDMA]
- gene silencing potency in hepatocytes in vivo, series: DLinKC2-DMA>DLinKDMA>DLinDMA>>DLinDAP

Compound: CCCCC/C=C\C/C=C\CCCCCCCC(=O)OCC(CN(C)C)OC(=O)CCCCCCC/C=C\C/C=C\CCCCC (stereo not shown) [DLinDAP, 1,2-dilineoyl-3-dimethylammonium-propane]
- gene silencing potency in hepatocytes in vivo, series: DLinKC2-DMA>DLinKDMA>DLinDMA>>DLinDAP

Compound: CCCCC/C=C\C/C=C\CCCCCCCCC1(CCCCCCCC/C=C\C/C=C\CCCCC)OCC(CCN(C)C)O1 (stereo not shown) [DLinKC2-DMA, 1,2-dilinoleyl-4-(2-dimethylaminoethyl)-[1,3]-dioxolane]
- gene silencing potency in hepatocytes in vivo, series: DLinKC2-DMA>DLinKDMA>DLinDMA>>DLinDAP
